Laboratory results taken from EP0528146A1, “N-phenylthiourea derivatives and pharmaceutical use thereof” (SANDOZ LTD., priority 1991, dated 1993).

What was measured:
Conditions in all cases: in supplemented diet
[1] = system: Total triglycerides; assay: Total triglycerides in blood serum of the rats of Test A; assay type: in vivo, Male Sprague-Dawley rats
Description: Male Sprague-Dawley rats weighing 200-225 g are housed two per cage and fed Purina Rodent Chow Special Mix 5001-S supplemented with 0.25 % cholic acid and 0.75 % cholesterol by Purina and water ad libitum for seven or eight days. Each test substance is then administered to a group of six rats in the supplemented diet for eight or twenty-one days, the test substance constituing 0.005-0.20 % of the diet. Body weight and food consumption data are recorded prior to diet administration, prior to test substance administration and at termination. Typical doses of the test substance are 4-200 mg/kg/day.
At termination, the rats are anesthetized, sacrificed by exsanguination, the blood is collected, kept on ice while clotting, centrifuged, and the serum is separated. […] Remaining sera aliquots are refrigerated and frozen for storage.
Total triglycerides are assayed on blood serum using the Boehringer Mannheim Diagnostics Reagentset^R Triglycerides-GB kit (Cat. No. 877557) modified for microtiter plate assays as follows: The reagents are prepared according to the described method. 100 µl of Working Solution 1 and 20 µl of dilute blood serum [1:1 blood serum:saline (saline is 0.15 M sodium chloride in ddH₂O)] are added to each well of a ninety-six well microtiter plate, mixed and incubated at 20°-25° for at least 5 minutes. 100 µl of working solution 2 is added to each well, and the contents are mixed and incubated at 20°-25° for at least 5 minutes and read at 490, 492 or 500 nm. The total triglyceride content in mg/dl of blood serum is calculated by comparing the absorbance with the absorbance of known samples.
Other conventional methods may be used to assay the blood serum samples for HDL-cholesterol and total triglyceride content.

[2] = system: HDL-cholesterol; assay: Test A: In vivo HDL-cholesterol test; set-up: species or system Male Sprague-Dawley rats
Description: a) Test A: In vivo HDL-cholesterol test: Male Sprague-Dawley rats weighing 200-225 g are housed two per cage and fed Purina Rodent Chow Special Mix 5001-S supplemented with 0.25 % cholic acid and 0.75 % cholesterol by Purina and water ad libitum for seven or eight days. Each test substance is then administered to a group of six rats in the supplemented diet for eight or twenty-one days, the test substance constituing 0.005-0.20 % of the diet. Body weight and food consumption data are recorded prior to diet administration, prior to test substance administration and at termination. Typical doses of the test substance are 4-200 mg/kg/day. At termination, the rats are anesthetized, sacrificed by exsanguination, the blood is collected, kept on ice while clotting, centrifuged, and the serum is separated. […] Remaining sera aliquots are refrigerated and frozen for storage. HDL is isolated by micro-ultracentrifugation (mUC) or fast protein liquid chromatography (FPLC) techniques. The mUC method is as follows: 175 µl of the 1.06 g/ml density-adjusted blood serum is centrifuged at 42000 rpm in a Beckmann 42.2 Ti rotor at 20°C for 2.5 hours. 95 µl is fractionated from the top, leaving 80 µl in the bottom. FPLC fractionation is performed by Superose^R 6 (highly cross-linked beaded agarose having a dry bead diameter of 20-40 µm) gel permeation chromatography using the method of Kieft et al., J.Lipid Res. 32 (1991) 859-866 modified by the technique described in France et al., Laboratory Robotics and Automation 2 (1990) 155-173. The column buffer is Tris buffered saline solution [i.e. 0.05 M Tris (2-amino-2-hydroxymethyl-1,3-propanediol) and 0.15 M sodium chloride in distilled deionized water (ddH₂O)] containing 0.01 % sodium azide. 200 µl of serum is injected and forty 0.5 ml fractions are collected. Cholesterol is assayed on total, 42.2 Ti rotor bottoms and FPLC fractions using the Sigma Diagnostics kit for the enzymatic determination of cholesterol, Procedure No. 352, modified for use with ninety-six well microtiter plates. The reconstituted reagent (after addition of water) contains 300 U/l cholesterol oxidase, 100 U/l cholesterol esterase, 1000 U/l peroxidase (horseradish), 0.3 mmoles/l 4-aminoantipyrine and 30.0 mmoles/l p-hydroxybenzenesulfonate in a pH 6.5 buffer. This method uses cholesterol esterase to hydrolyze cholesterol esters to free cholesterol. Free cholesterol is oxidized to produce hydrogen peroxide that is used to form a quinoneimine dye. Since the reaction takes place quantitatively, the concentration of the dye, measured colorimetrically, is directly proportional to the cholesterol content of the sample. Calibrator, standard and sample may be diluted with saline if cholesterol concentrations cause readings outside the linear range. 20 µl of calibrator, standard or test sample is mixed with a 200 µl aliquot of reagent in a ninety-six well microtiter plate. Each mixture is incubated at 20°-25° for 25 minutes, and absorbance is determined by a colorimetric microtiter plate reader at 490, 492 or 500 nm. Top cholesterol (i.e. LDL-cholesterol) is determined by subtraction. Quality of micro-ultracentrifugation separation is determined by Corning universal agarose gel electrophoresis with Fat Red 7B stain. FPLC fraction Apo A-I content is assessed by the non-reducing SDS-PAGE method of France et al., J. Lipid Res. 30 (1989) 1997-2004. HDL-cholesterol is quantitated by assessing the cholesterol content of fractions containing Apo A-I and lacking immunoreactive Apo B protein. Other conventional methods may be used to assay the blood serum samples for HDL-cholesterol and total triglyceride content.

[3] = system: Apo A-I; assay: Test B: Apo A-I test (rat Apo A-I ELISA on blood serum of the test animals of Test A); assay type: in vivo
Description: The Apo A-I blood serum level of the test animals of Test A is determined by rat Apo A-I Enzyme-Linked Immunosorbent Assay (ELISA) as follows:
1. Production and purification of rabbit anti-rat Apo A-I antibody:
Rat Apo A-I is purified from pooled rat blood serum by sequential ultracentrifugation and isolation of rat high-density lipoproteins (HDL). Following delipidation, Apo A-I is resolved from other HDL proteins by gel filtration chromatography. Antisera are raised in three rabbits (Pocono Rabbit Farms, Candensis, PA) by serial subcutaneous injections of purified rat Apo A-I by conventional immunization protocols. After one year of repeated bleedings, antisera are pooled, aliquoted and frozen at -20°. The crude antisera are defrosted, applied to a cyanogen bromide-activated Sepharose^R Cl-4B (beaded agarose having a 60-140 µm dry bead diameter) column to which purified human HDL had been covalently linked, the column is washed with saline, and the purified antibody is eluted with 1 M pH 3 glycine solution. The glycine is removed by dialysis utilizing Tris Buffered Saline Solution to obtain a concentrated solution of purified rabbit anti-rat Apo A-I antibody.
2. Buffers, reagents and standards:
• Sodium carbonate adsorption buffer: 2.25 g of sodium carbonate, 4.40 g of sodium bicarbonate and 0.15 g of sodium azide are dissolved in 1.4 l of ddH₂O, the pH is adjusted to 9.6 with sodium hydroxide, and the buffer is diluted with ddH₂O to a total volume of 1.5 l; • pH 8 0.5 M Tris: a solution of 60.55 g of Tris·HCl (2-amino-2-hydroxymethyl-1,3-propanediol·hydrochloride) in 1.0 l of ddH₂O is adjusted to pH 8.0 with 10 N sodium hydroxide solution; • secondary antibody buffer: 200 ml of pH 8 0.5 M Tris is added to a solution of 40 g of bovine serum albumin (BSA) Cohn Fraction V in 1.8 l of ddH₂O, 0.2 g of sodium azide is added, and 18.0 g of sodium chloride is added; • substrate buffer: 0.1 g of sodium azide is added with stirring to 105.1 g of diethanolamine and 500 ml of ddH₂O, 10 ml of 0.5 M magnesium chloride·hexahydrate solution is added, the pH is adjusted to 9.8 with 12 N hydrochloric acid, and the solution is diluted to a total volume of 1 l with ddH₂O; • 30 x ELISA wash buffer: 525.96 g of sodium chloride, 76.68 g of Tris, 6 g of sodium azide and 30 ml of Tween^R20 [polyoxyethylene (20) sorbitan monolaurate] are combined, the pH is adjusted to 7.3 with 12 N hydrochloric acid, and the solution is diluted to a total volume of 2 l with ddH₂O; • 1 x ELISA wash buffer: 1 volume of 30 x ELISA wash buffer is diluted with 29 volumes of ddH₂O; • sample diluent buffer: 886.34 ml of secondary antibody buffer and 113.66 ml of Tween^R20 are mixed well to obtain an 11.366 % v/v Tween^R20 solution; • standard diluent buffers: (A) 780 mi of secondary antibody buffer and 220 ml of Tween^R20 are mixed well to obtain a 22 % v/v Tween^R20 solution. (B) 890 ml of secondary antibody buffer and 110 ml of Tween^R20 are mixed well to obtain an 11 % v/v Tween^R20 solution; • rat serum pool A: this source of rat blood serum is used to construct the standard curve for each assay. It is calibrated against purified Apo A-I and contains 45 ± 2.7 mg Apo A-I/dl blood serum; • rat serum pool B: this is used as a low internal standard in each assay for monitoring assay drift and contains 40 mg Apo A-I/dl blood serum; • rat serum pool C: this is derived from rats treated with reference compound (gemfibrozil), is used as a high internal standard for monitoring assay drift and contains 70 mg Apo A-I/dl blood serum.
Purified rat Apo A-I from a frozen stock containing 942 µg/ml is diluted in sodium carbonate adsorption buffer to a final concentration of 3.7 µg/ml. Into each well of several Nunc polystyrene ninety-six well microtiter plates is added 100 µl of this solution. Apo A-I is allowed to adsorb onto the plates for 48 hours at 4°. […]

[4] = duration of treatment 8 days, dose mg/kg/day: Example 1 60, Example 2 79, Gemfibrozil 50
[5] = duration of treatment 21 days, dose mg/kg/day: Example 1 65, Example 2 73, Gemfibrozil 44

## Cc1ccc(C)c(OCCCC(C)(C)C(=O)O)c1 [Gemfibrozil, reference compound]
[1]; [4]
  Total triglycerides level decrease (%): 35%
[1]; [5]
  Total triglycerides level decrease (%): 43%
[2]; [4]
  HDL-cholesterol level increase (%): 100%
[2]; [5]
  HDL-cholesterol level increase (%): 106%
[3]; [4]
  Apo-I level increase (%): 50%
[3]; [5]
  Apo-I level increase (%): 44%

## CCCNC(=S)Nc1cc(Cl)ccc1C [Example 1, N-(5-Chloro-2-methylphenyl)-N'-propylthiourea]
[1]; [4]
  Total triglycerides level decrease (%): 45%
[1]; [5]
  Total triglycerides level decrease (%): 70%
[2]; [4]
  HDL-cholesterol level increase (%): 225%
[2]; [5]
  HDL-cholesterol level increase (%): 256%
[3]; [4]
  Apo-I level increase (%): 65%
[3]; [5]
  Apo-I level increase (%): 47%

## Cc1ccc(Cl)cc1NC(=S)NCC(C)C [Example 2, N-(5-Chloro-2-methylphenyl)-N'-2-methylpropylthiourea]
[1]; [4]
  Total triglycerides level decrease (%): 49%
[1]; [5]
  Total triglycerides level decrease (%): 44%
[2]; [4]
  HDL-cholesterol level increase (%): 267%
[2]; [5]
  HDL-cholesterol level increase (%): 323%
[3]; [4]
  Apo-I level increase (%): 69%
[3]; [5]
  Apo-I level increase (%): 102%
